Test results: patent US20080311126A1, “Antisense Oligonucleotides Directed to Ribonucleotide Reducatase R2 and Uses Thereof in Combination Therapies for the Treatment of Cancer” (Genesense Technologies, Inc, priority 2004, published 2008)
Oligonucleotides are written 5' to 3', each unit as a sugar letter and its base; * is a phosphorothioate linkage, no mark a phosphodiester; rarer units and linkages stand in square brackets, end groups in braces. Plain capitals give the bases only. d = 2'-deoxy (DNA)

Legend:
Assay in all cases: Relative colony forming efficiency (Example 17, Table 13)
Format in all cases: cell-based, human
[1] = system: MDA-MB-231 breast cell adenocarcinoma; details: averages of 2-8 determinations
Procedure: (§1) Colony forming efficiency was determined using standard protocols. […] The test oligonucleotides were added to cell cultures in the presence of 2.5 μg of DOTMA/DOPE (Lipofectin; Life Technologies, Inc.) for four hours. The oligonucleotide was tested at 0.2 μM unless otherwise indicated. Controls were the cultures treated with lipofectin but without the oligonucleotide. […] Surviving cells were visualized by methylene blue staining, and colonies were scored. In some experiments cell aliquots were removed from the culture and viability was determined using the trypan blue exclusion test. Results were analyzed as percent of surviving cells compared to control cells. To test the antisense effects of many of these sequences as phosphorthioate deoxyribonucleotides, they were examined in relative colony forming experiments conducted as described in Example 16 with a series of human tumour cell lines. The results (shown as % inhibition of colony forming ability) obtained with cancer cells derived from the bladder, breast, lung, colon, pancreas, prostate, liver and cervix, are shown in Table 13. The specific cell lines employed are as follows: […]

[2] = system: T24 bladder cell carcinoma; details: averages of 2-8 determinations
Procedure: as §1

[3] = system: PC-3 prostrate cell adenocarcinoma; details: averages of 2-8 determinations
Procedure: as §1

[4] = system: MDA PaCa-2 pancreatic cell carcinoma; details: MIA PaCa-2 pancreatic cell carcinoma; averages of 2-8 determinations
Procedure: as §1

[5] = system: HepG2 hepatocellular carcinoma; details: averages of 2-8 determinations
Procedure: as §1

A549 lung cell carcinoma = details: averages of 2-8 determinations
Procedure: as §1

[6] = system: HCT116 colon cell carcinoma; details: averages of 2-8 determinations
Procedure: as §1

Substance | Reduced relative colony forming efficiency, MDA-MB-231 (% inhibition of colony forming ability) [1] [%] | Reduced relative colony forming efficiency, T24 (% inhibition of colony forming ability) [2] [%] | Reduced relative colony forming efficiency, PC-3 (% inhibition of colony forming ability) [3] [%] | Reduced relative colony forming efficiency, MIA PaCa-2 (% inhibition of colony forming ability) [4] [%] | Reduced relative colony forming efficiency, HepG2 (% inhibition of colony forming ability) [5] [%] | Reduced relative colony forming efficiency, A549 (% inhibition of colony forming ability) (A549 lung cell carcinoma) [%] | Reduced relative colony forming efficiency, HCT116 (% inhibition of colony forming ability) [6] [%]
TTAGTGGTCAGGAGAATGTA (antisense dT*dT*dA*dG*dT*dG*dG*dT*dC*dA*dG*dG*dA*dG*dA*dA*dT*dG*dT*dA) [AS-II-1819-20] | 90.68 | 53.74 | 85.46 | 20.02 | 83.89 | – | –
TGCCTCCGACCCTTCCCATT (antisense dT*dG*dC*dC*dT*dC*dC*dG*dA*dC*dC*dC*dT*dT*dC*dC*dC*dA*dT*dT) [AS-II-14-20] | 91.24 | 77.59 | 92.76 | 47.93 | 88.4 | – | –
TCAGGCAAGCAAAATCACAG (antisense dT*dC*dA*dG*dG*dC*dA*dA*dG*dC*dA*dA*dA*dA*dT*dC*dA*dC*dA*dG) [AS-II-1001-20] | 82.17 | 86.11 | 85.94 | 64.21 | 90.36 | 71.36 | 55.58
GCCACAGGATAAAAACACAA (antisense dG*dC*dC*dA*dC*dA*dG*dG*dA*dT*dA*dA*dA*dA*dA*dC*dA*dC*dA*dA) [AS-II-2009-20] | 96.25 | 61.84 | 83.36 | 93.74 | 96.99 | 93.32 | 69.92
CGGGTCCGTGATGGGCGCGA (antisense dC*dG*dG*dG*dT*dC*dC*dG*dT*dG*dA*dT*dG*dG*dG*dC*dG*dC*dG*dA) [AS-II-217-20] | 52.7 | 65.02 | 87.41 | 87.38 | 99.55 | – | 61.85
GCAAAGAAAGCCAGAACATG (antisense dG*dC*dA*dA*dA*dG*dA*dA*dA*dG*dC*dC*dA*dG*dA*dA*dC*dA*dT*dG) [AS-II-579-20] | 66.89 | 76.68 | 88.16 | 97.55 | 94.28 | 95.49 | 69.08
AS-II-218220 (antisense dC*dG*dT*dT*dG*dA*dG*dG*dA*dA*dA*dA*dT*dA*dC*dA*dG*dT*dG*dA) | 84.95 | 67.76 | 85.91 | 56.43 | 95.48 | 90.97 | 77.66
ACCCTTCCCATTGGCTGCGC (antisense dA*dC*dC*dC*dT*dT*dC*dC*dC*dA*dT*dT*dG*dG*dC*dT*dG*dC*dG*dC) [AS-II-6-20] | 85.4 | 73.55 | 59.21 | 95.15 | 97.89 | – | –
CACACAACCTACTTACACCA (antisense dC*dA*dC*dA*dC*dA*dA*dC*dC*dT*dA*dC*dT*dT*dA*dC*dA*dC*dC*dA) [AS-II-2372-20] | 90.09 | 61.13 | 86.06 | 94.36 | – | 96.41 | 64.7
GCACATCTTCAGTTCATTTA (antisense dG*dC*dA*dC*dA*dT*dC*dT*dT*dC*dA*dG*dT*dT*dC*dA*dT*dT*dT*dA) [AS-II-1362-20] | 70.22 | – | 77.38 | 44.14 | 80.41 | 83.9 | 78.47
ATGGAAAAAAAAAATCAGCC (antisense dA*dT*dG*dG*dA*dA*dA*dA*dA*dA*dA*dA*dA*dA*dT*dC*dA*dG*dC*dC) [AS-II-1390-20] | 66.89 | 61.13 | 76.76 | 82.77 | 90.21 | 88.31 | 62.18
GCAAAGGCTACAACACGTTC (antisense dG*dC*dA*dA*dA*dG*dG*dC*dT*dA*dC*dA*dA*dC*dA*dC*dG*dT*dT*dC) [AS-II-861-20] | 89.98 | 73.5 | 87.33 | 97.3 | 96.08 | 95.78 | 74.2
GGGCACATCTTCAGTTCATT (antisense dG*dG*dG*dC*dA*dC*dA*dT*dC*dT*dT*dC*dA*dG*dT*dT*dC*dA*dT*dT) [AS-II-1364-20] | 93.87 | 66.59 | 79.01 | 59.34 | – | 95.59 | 77.29
GACATCACTCCCATCCTCTG (antisense dG*dA*dC*dA*dT*dC*dA*dC*dT*dC*dC*dC*dA*dT*dC*dC*dT*dC*dT*dG) [AS-II-1302-20] | 92.2 | 70.56 | 79.01 | 23.86 | – | 93.17 | 71.98
